Data taken from BigSolDB 2.1.

COC(=O)c1ccccc1S(N)(=O)=O
Details	solubility (mole fraction)
in 2-butanone, 273.15 K	0.028
in 2-butanone, 278.15 K	0.0329
in 2-butanone, 283.15 K	0.0385
in 2-butanone, 287.95 K	0.0446
in 2-butanone, 293.85 K	0.0529
in 2-butanone, 298.75 K	0.0609
in 2-butanone, 303.45 K	0.0691
in 2-butanone, 308.15 K	0.0784
in 2-butanone, 313.85 K	0.0907
in 2-butanone, 318.65 K	0.102
in 2-butanone, 324.15 K	0.117
in 2-pentanone, 273.15 K	0.0185
in 2-pentanone, 278.15 K	0.0218
in 2-pentanone, 283.15 K	0.0256
in 2-pentanone, 287.95 K	0.0298
in 2-pentanone, 293.85 K	0.0355
in 2-pentanone, 298.75 K	0.0409
in 2-pentanone, 303.45 K	0.0466
in 2-pentanone, 308.15 K	0.053
in 2-pentanone, 313.85 K	0.0617
in 2-pentanone, 318.65 K	0.0695
in 2-pentanone, 324.15 K	0.0797
in acetone, 273.15 K	0.0414
in acetone, 278.15 K	0.0483
in acetone, 283.15 K	0.0561
in acetone, 287.95 K	0.0643
in acetone, 293.85 K	0.0757
in acetone, 298.75 K	0.0863
in acetone, 303.45 K	0.0976
in acetone, 308.15 K	0.11
in acetone, 313.85 K	0.126
in acetone, 318.65 K	0.141
in acetone, 324.15 K	0.16
in acetonitrile, 273.15 K	0.0188
in acetonitrile, 278.15 K	0.0231
in acetonitrile, 283.15 K	0.0282
in acetonitrile, 287.95 K	0.0339
in acetonitrile, 293.85 K	0.0423
in acetonitrile, 298.75 K	0.0504
in acetonitrile, 303.45 K	0.0594
in acetonitrile, 308.15 K	0.0695
in acetonitrile, 313.85 K	0.0835
in acetonitrile, 318.65 K	0.0975
in acetonitrile, 324.15 K	0.115
in cyclopentanone, 273.15 K	0.0537
in cyclopentanone, 278.15 K	0.0616
in cyclopentanone, 283.15 K	0.0704
in cyclopentanone, 287.95 K	0.0795
in cyclopentanone, 293.85 K	0.092
in cyclopentanone, 298.75 K	0.103
in cyclopentanone, 303.45 K	0.115
in cyclopentanone, 308.15 K	0.128
in cyclopentanone, 313.85 K	0.145
in cyclopentanone, 318.65 K	0.16
in cyclopentanone, 324.15 K	0.179
in ethanol, 272.15 K	0.00172
in ethanol, 278.75 K	0.00252
in ethanol, 283.15 K	0.00322
in ethanol, 288.15 K	0.0042
in ethanol, 293.05 K	0.0054
in ethanol, 298.05 K	0.00692
in ethanol, 303.15 K	0.00887
in ethanol, 308.05 K	0.0112
in ethanol, 312.15 K	0.0134
in ethanol, 318.15 K	0.0175
in ethanol, 324.15 K	0.0226
in ethyl acetate, 273.15 K	0.0112
in ethyl acetate, 278.15 K	0.0135
in ethyl acetate, 283.15 K	0.0162
in ethyl acetate, 287.95 K	0.0192
in ethyl acetate, 293.85 K	0.0236
in ethyl acetate, 298.75 K	0.0278
in ethyl acetate, 303.45 K	0.0323
in ethyl acetate, 308.15 K	0.0373
in ethyl acetate, 313.85 K	0.0444
in ethyl acetate, 318.65 K	0.0509
in ethyl acetate, 324.15 K	0.0596
in ethyl formate, 273.15 K	0.00969
in ethyl formate, 278.15 K	0.0119
in ethyl formate, 283.15 K	0.0145
in ethyl formate, 287.95 K	0.0174
in ethyl formate, 293.85 K	0.0215
in ethyl formate, 298.75 K	0.0256
in ethyl formate, 303.45 K	0.03
in ethyl formate, 308.15 K	0.0351
in ethyl formate, 313.85 K	0.0421
in ethyl formate, 318.65 K	0.049
in ethyl formate, 324.15 K	0.0578
in isobutanol, 272.15 K	0.000673
in isobutanol, 278.75 K	0.001
in isobutanol, 283.15 K	0.00129
in isobutanol, 288.15 K	0.00171
in isobutanol, 293.05 K	0.00224
in isobutanol, 298.05 K	0.00291
in isobutanol, 303.15 K	0.00378
in isobutanol, 308.05 K	0.00479
in isobutanol, 312.15 K	0.00586
in isobutanol, 318.15 K	0.00775
in isobutanol, 324.15 K	0.0101
in isopentanol, 272.15 K	0.000712
in isopentanol, 278.75 K	0.00105
in isopentanol, 283.15 K	0.00135
in isopentanol, 288.15 K	0.00177
in isopentanol, 293.05 K	0.00229
in isopentanol, 298.05 K	0.00296
in isopentanol, 303.15 K	0.00381
in isopentanol, 308.05 K	0.00483
in isopentanol, 312.15 K	0.00586
in isopentanol, 318.15 K	0.00764
in isopentanol, 324.15 K	0.00989
in isopropanol, 272.15 K	0.000871
in isopropanol, 278.75 K	0.00134
in isopropanol, 283.15 K	0.00176
in isopropanol, 288.15 K	0.00239
in isopropanol, 293.05 K	0.00317
in isopropanol, 298.05 K	0.00422
in isopropanol, 303.15 K	0.00557
in isopropanol, 308.05 K	0.00726
in isopropanol, 312.15 K	0.00894
in isopropanol, 318.15 K	0.0121
in isopropanol, 324.15 K	0.0161
in methanol, 272.15 K	0.00311
in methanol, 278.75 K	0.00462
in methanol, 283.15 K	0.00595
in methanol, 288.15 K	0.00788
in methanol, 293.05 K	0.0102
in methanol, 298.05 K	0.0133
in methanol, 303.15 K	0.0171
in methanol, 308.05 K	0.0217
in methanol, 312.15 K	0.0264
in methanol, 318.15 K	0.0348
in methanol, 324.15 K	0.0454
in methyl acetate, 273.15 K	0.0162
in methyl acetate, 278.15 K	0.0196
in methyl acetate, 283.15 K	0.0235
in methyl acetate, 287.95 K	0.0279
in methyl acetate, 293.85 K	0.0341
in methyl acetate, 298.75 K	0.04
in methyl acetate, 303.45 K	0.0465
in methyl acetate, 308.15 K	0.0537
in methyl acetate, 313.85 K	0.0637
in methyl acetate, 318.65 K	0.0731
in methyl acetate, 324.15 K	0.0851
in n-butanol, 272.15 K	0.00092
in n-butanol, 278.75 K	0.00137
in n-butanol, 283.15 K	0.00177
in n-butanol, 288.15 K	0.00234
in n-butanol, 293.05 K	0.00307
in n-butanol, 298.05 K	0.004
in n-butanol, 303.15 K	0.00518
in n-butanol, 308.05 K	0.00659
in n-butanol, 312.15 K	0.00801
in n-butanol, 318.15 K	0.0106
in n-butanol, 324.15 K	0.0139
in n-pentanol, 272.15 K	0.000797
in n-pentanol, 278.75 K	0.00118
in n-pentanol, 283.15 K	0.0015
in n-pentanol, 288.15 K	0.00197
in n-pentanol, 293.05 K	0.00255
in n-pentanol, 298.05 K	0.0033
in n-pentanol, 303.15 K	0.00424
in n-pentanol, 308.05 K	0.00534
in n-pentanol, 312.15 K	0.0065
in n-pentanol, 318.15 K	0.00849
in n-pentanol, 324.15 K	0.011
in n-propanol, 272.15 K	0.00106
in n-propanol, 278.75 K	0.00159
in n-propanol, 283.15 K	0.00206
in n-propanol, 288.15 K	0.00274
in n-propanol, 293.05 K	0.00357
in n-propanol, 298.05 K	0.00469
in n-propanol, 303.15 K	0.00609
in n-propanol, 308.05 K	0.00778
in n-propanol, 312.15 K	0.00946
in n-propanol, 318.15 K	0.0125
in n-propanol, 324.15 K	0.0164
